Source: patent US20080131310A1, “Methods for determining effectiveness of waste water tank deodorizers and synthetic waste compositions for use in said methods” (Fuller Brush Company, Inc., priority 2006, published 2008)
Marks after values point to notes of the source that are not given here.

Tested on: Escherichia coli strain K12 (ATCC 25253)
Test: Inhibitive evaluation: hydrogen sulfide generation in synthetic waste water media inoculated with E. coli
Assay type: cell-based
Conditions: for H2S in ppm vs. contact times, 24 Hours: 24 hours contact time; for H2S in ppm vs. contact times, 48 Hours: 48 hours contact time; for H2S in ppm vs. contact times, 72 Hours: 72 hours contact time
Experimental: An experiment was conducted to evaluate the effectiveness of recreational vehicle (Black) waste water tank deodorizer in preventing […] degradation processes that result in unpleasant odors. The effectiveness of the tank deodorizer was evaluated through the inhibition of growth using an E. Coli within a synthetic waste water media. This comparison of the respective products inhibition was over selected time periods from 5 to 7 days.
500 grams total of synthetic soil media was prepared having the following ingredients:
RV biodegradable toilet paper (small pieces) . . . 5.0 g • With the exception of the oatmeal and toilet paper, the above ingredients were mixed together and heated to 55° C. with constant mixing for 15 to 20 minutes. The oatmeal and toilet paper were then added and thoroughly mixed in. Mixture is allowed to cool to room temperature, then transferred to the waste water tank/digester test vessel.
Escherichia coli strain K12 (ATCC 25253) was employed.
1. To build up the count of microbes, using a 48-hour Nutrient Broth culture incubated at 37° C. of the E. Coli or other selected organism, the culture must be on at least the fourth consecutive 24-hour transfer before using. Have one tube of the 48-hour culture available for each of the test vessels.
2. Before inoculating the surrogate black waste water tank test vessel containing the synthetic soil media, the number of organisms being utilized was verified to achieve a range no less than a count of log^8 per milliliter. Serial dilutions of the E. coli culture were prepared as follows:
a.) Tube • #1. 1.0 ml organism culture+9.0 ml Nutrient Broth=1/10 • #2. 1.0 ml tube #1 dilution+9.0 ml Nutrient Broth=1/10^−2 • #3. 1.0 ml tube #2 dilution+9.0 ml Nutrient Broth=1/10^−3 • #4. 1.0 ml tube #3 dilution+9.0 ml Nutrient Broth=1/10^−4 • #5. 1.0 ml tube #4 dilution+9.0 ml Nutrient Broth=1/10^−5 • #6. 1.0 ml tube #5 dilution+9.0 ml Nutrient Broth=1/10^−6 • #7. 1.0 ml tube #6 dilution+9.0 ml Nutrient Broth=1/10^−7 • #8. 1.0 ml tube #7 dilution+9.0 ml Nutrient Broth=1/10^−8 • *Note: each dilution was thoroughly mixed before transferring to the next tube. b.) Each dilution was plated by the pour plate method. 1.0 ml of dilution was plated with 10.0 ml TGY pour plate agar. Plates were incubated at 37° C. for 48 hrs before reading for enumeration.
3. Specified amounts of test subject deodorizer from the chart below were added to the test vessel containing the 500 grams of the synthetic soil media and mix thoroughly to assure uniform distribution.
4. 5.0 ml of the E. coli culture from step #1 were added to the test vessel and thoroughly mixed to assure uniform distribution. This brought the organism count to a range to greater than 1.0×10^4 cfu/ml in the 500 g of synthetic soil media.
5. Caps were placed on the test vessels and the vessels were stored at a temperature of 80° F. during the 5 day or more evaluation period. Note: Tests may be performed at various temperatures at the discretion of the investigator. For example, 100° F. incubation may be used to reflect very high summer temperature test environments.
6. At 24 hrs contact time, handling was in such a manner as to minimize movement of the container and sewage inside. The cap was quickly removed from the test vessel and the holding cradle containing the H2S monitor was placed over the mouth of the test vessel for 4 minutes. During the 4 minute testing period the container was maintained as still as possible. • *Note: monitor must be zeroed before each reading taken.
7. After 4 minute of testing was completed, the monitor and cradle were removed from the mouth of the vessel and the cap replaced. Peak gas readings in ppm of H2S were recorded. Steps 6 & 7 were repeated for each test vessel in set.
8. Steps (6-7) were repeated for each of the remaining contact times of 48 hrs, 72 hrs, 96 hrs, 120 hrs. It should be noted that other times could be adopted for standardization of the protocol and that these times are simply preferred. […]

[1] = 0.78 ml/500 g synthetic soil media (8 oz per 40 gal tank), 80° F., peak head space reading, >5 ppm unacceptable

| SMILES | H2S in ppm vs. contact times, 24 Hours [1] [ppm] | H2S in ppm vs. contact times, 48 Hours [1] [ppm] | H2S in ppm vs. contact times, 72 Hours [1] | H2S in ppm vs. contact times, 96 Hours (96 hours contact time, 0.78 ml/500 g synthetic soil media (8 oz per 40 gal tank), 80° F., peak head space reading, >5 ppm unacceptable) [ppm] | H2S in ppm vs. contact times, 120 Hours (120 hours contact time, 0.78 ml/500 g synthetic soil media (8 oz per 40 gal tank), 80° F., peak head space reading, >5 ppm unacceptable) [ppm] | Performance in H2S inhibition compared with the Aqua Kem control (over 120 hours, 0.78 ml/500 g synthetic soil media) |
| --- | --- | --- | --- | --- | --- | --- |
| C1N2CN3CN1CN(C2)C3 [Hexamethylene-Tetramine] | 2 | 2 | 48* ppm |  |  |  |
| O=[N+]([O-])C(Br)(CO)CO [Bronopol, 2-bromo-2-nitropropane-1,3-diol] | 0 | 0 | 0 ppm | 0 | 0 | The * indicates when each active had reached the unacceptable level of odor value. The two best performing actives that were equal to or near the performance of the Aqua Kem control were the Bronopol and Neolone M-10. |
